Data taken from patent US20230190867A1, “METHODS OF TREATING NASH AND COMPOSITIONS THEREFORE” (BIOINCEPT, LLC, priority 2018, published 2023).

Tests used:
[1] = test system: Kv flux; format: cell-based; set-up: Effectiveness: scale not given here; details: for Effectiveness / Kv flux 100% in nt (stimulus buffer only): conc. 0.625 uM; for K+ inhibition as compared with sPIF: dose comparison analysis
Description: Currently, effective immunomodulatory agents, with minimal side effects, that can regulate inflammation in the liver to promote liver health in the setting of chronic liver disease have not been developed and they are desperately needed. […] In addition, the effect of TxpIC on these cells were tested This is a potent chemical mimicking viarl infection in the liver.

[2] = test system: HepaRG cells induced by TxpIC; assay: Inflammatory gene expression in TxpIC-induced HepaRG cells (real-time PCR); format: cell-based, human; details: TxpIC 500 ng/ml
Description: Methods Primary human hepatocytes (PHHs) and HepaRG™ cells were studied. The later are terminally differentiated hepatic cells derived from a human hepatic progenitor cell line that retains many characteristics of primary human hepatocytes were purchased from Thermo Fisher Scientific Inc. (MA, USA). PHHs were also obtained from Dr. David Geller, at the University of Pittsburgh, through the NIH funded Liver Tissue and Cell Distribution System (LTCDS) and maintained in Williams E Medium containing cell maintenance supplement reagents from Invitrogen (Carlsbad, Calif.). The HCV JFH strain was used in cell culture experiments at an M.O.I. of 0.5-1. […] In other experiments TxpIC at 500 ng/ml were added to the cells. […] Fluorescence real-time PCR analysis was preformed using an ABI 7500 instrument (Applied Biosystems, Foster City, Calif.) and TaqMan gene expression assay (Applied Biosystems). Relative amounts of mRNA, determined using a FAM-Labeled TaqMan Probe, were normalized to the 18S ribosomal RNA levels in each PCR reaction using the eukaryotic 18S rRNA endogenous control from ABI (VIC/MGB Probe, Primer Limited, Cat #4319413E). The delta 2(-Delta Delta C(T)) method was used for quantitation of relative mRNA levels and fold induction.

[3] = test system: Hepatitis C (HCV)-induced primary human hepatocytes (PHH); assay: Inflammatory gene expression in HCV-induced primary human hepatocytes; format: cell-based
Description: (§1) Methods Primary human hepatocytes (PHHs) and HepaRG™ cells were studied. The later are terminally differentiated hepatic cells derived from a human hepatic progenitor cell line that retains many characteristics of primary human hepatocytes were purchased from Thermo Fisher Scientific Inc. (MA, USA). PHHs were also obtained from Dr. David Geller, at the University of Pittsburgh, through the NIH funded Liver Tissue and Cell Distribution System (LTCDS) and maintained in Williams E Medium containing cell maintenance supplement reagents from Invitrogen (Carlsbad, Calif.). The HCV JFH strain was used in cell culture experiments at an M.O.I. of 0.5-1. […] In other experiments TxpIC at 500 ng/ml were added to the cells. This chemical replicates a viral induced inflammation and therefore it can be used in different cell types also when hepatitis C infection is difficult to induce. […] Li, K. (2012). Hepatology, 55: 666-675. For analysis of endogenous mRNA levels, total RNA was isolated from cells using the RNeasy RNA extraction kit (Qiagen, Valencia, Calif.) and cDNA synthesis was performed using 0.5 μg of total RNA (Transcriptor First Strand cDNA Synthesis Kit, Roche, Basel, Switzerland). Fluorescence real-time PCR analysis was preformed using an ABI 7500 instrument (Applied Biosystems, Foster City, Calif.) and TaqMan gene expression assay (Applied Biosystems). Relative amounts of mRNA, determined using a FAM-Labeled TaqMan Probe, were normalized to the 18S ribosomal RNA levels in each PCR reaction using the eukaryotic 18S rRNA endogenous control from ABI (VIC/MGB Probe, Primer Limited, Cat #4319413E). The delta 2(-Delta Delta C(T)) method was used for quantitation of relative mRNA levels and fold induction.

[4] = test system: TxpIC-induced primary human hepatocytes (PHH); assay: Inflammatory gene expression in TxpIC-induced primary human hepatocytes; format: cell-based; details: for Tx pIC induced CxCl10 expression: as compared with sPIF; for Tx pIC induced RSAD2: sPIF 200 nM
Description: as §1

How did the Effectiveness [1] turn out when MVRIFPGSANKPSDD [PIF-pos2] was run?
The Effectiveness was −17.02.

What about the “Kv flux 100% in nt (stimulus buffer only)” value (shortened to “Kv flux 100% in nt”) [1] of the same sequence?
Its value is 117%.

How did the Effectiveness [1] turn out when MVRIIPGSANKPSDD [PIF-pos4] was run?
The Effectiveness was −1.117.

What about the “Kv flux 100% in nt” value [1] of the same sequence?
Its value is 101.1%.

For MVRIKPGSANKPSFD [PIF-pos10], which “effect on RSAD2 compared with sPIF” value [2] is on record?
The value was “similar”.

What about the “suppression of CxCL10, IL28, CCL5 compared with sPIF” value ([2]; time dependent) of the same sequence?
The value was “more pronounced suppression than sPIF”.

And the “HCV induced CXCL10 expression” value [3]?
Its value is “inhibit”.

And the “HCV induced IL28 expression” value [3]?
Its value is “Inhibitory effect”.

And the “INFa induced suppression of HCV” value [3]?
Its value is “potentiate”.

And the Effectiveness [1]?
Its Effectiveness is 53.72.

What about the “Kv flux 100% in nt” value [1] of the same sequence?
The value was 46.28%.

And the “K+ inhibition as compared with sPIF” value [1]?
The value was “increased K+ inhibition as compared with sPIF”.

What about the “500 ng/ml TpxIC induced CCL5” value [4] of the same sequence?
The value was “Inhibitory effect”.

What about the “Tx pIC induced CxCl10 expression” value [4] of the same sequence?
The value was “inhibit”.

And the “Tx pIC induced RSAD2” value [4]?
The value was “inhibit”.

How did the Effectiveness [1] turn out when MVRIKPGSANKWSDD [PIF-pos9] was run?
Its Effectiveness is 34.09.

And the “Kv flux 100% in nt” value [1]?
Its value is 65.91%.

Which Effectiveness [1] does the source give for MVRIKPGSANWPSDD [PIF-pos8] here?
The Effectiveness was 45.79.

What about the “Kv flux 100% in nt” value [1] of the same sequence?
The value was 54.21%.

For MVRIKPGSWNKPSDD [PIF-pos7], which Effectiveness [1] is on record?
Its Effectiveness is −22.27.

What about the “Kv flux 100% in nt” value [1] of the same sequence?
The value was 122.3%.

Which Effectiveness [1] does the source give for MVRIKPWSANKPSDD [PIF-pos6] here?
The Effectiveness was −20.45.

And the “Kv flux 100% in nt” value [1]?
The value was 120.5%.

What does the source list for MVRIKPYSANKPSDD [PIF-pos5]?
Effectiveness [1]: 22.81; Kv flux 100% in nt (stimulus buffer only) [1]: 77.19%

Which results are given for MVRIWPGSANKPSDD [PIF-pos1]?
Effectiveness [1]: 47.8; Kv flux 100% in nt (stimulus buffer only) [1]: 52.2%

MVRIYPGSANKPSDD [PIF-pos3] was tested. Which “HCV induced CXCL10 expression” value [3] did it give?
The value was “inhibit”.

And the “INFa induced suppression of HCV” value [3]?
The value was “potentiate”.

And the Effectiveness [1]?
Its Effectiveness is 52.05.

What about the “Kv flux 100% in nt” value [1] of the same sequence?
The value was 47.95%.

What about the “K+ inhibition as compared with sPIF” value [1] of the same sequence?
Its value is “increased K+ inhibition as compared with sPIF”.

What about the “500 ng/ml TpxIC induced CCL5” value [4] of the same sequence?
Its value is “Inhibitory effect”.

And the “Tx pIC induced CxCl10 expression” value [4]?
The value was “inhibit”.

What about the “Tx pIC induced RSAD2” value [4] of the same sequence?
The value was “inhibit”.
